Molecular target: PI3K delta (Homo sapiens, UniProt O00329)
Assay: Luciferase-coupled chemiluminescence kinase assay (ATP consumption, KinaseGlo)
Format: biochemical
Summary of the method: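 Compound, kinase and ATP (≤ KM) reacted 2 h at ambient temperature, then remaining ATP quantified with luciferase-luciferin (KinaseGlo) luminescence as percent consumed.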

Sequence of PI3K delta (O00329 whole entry): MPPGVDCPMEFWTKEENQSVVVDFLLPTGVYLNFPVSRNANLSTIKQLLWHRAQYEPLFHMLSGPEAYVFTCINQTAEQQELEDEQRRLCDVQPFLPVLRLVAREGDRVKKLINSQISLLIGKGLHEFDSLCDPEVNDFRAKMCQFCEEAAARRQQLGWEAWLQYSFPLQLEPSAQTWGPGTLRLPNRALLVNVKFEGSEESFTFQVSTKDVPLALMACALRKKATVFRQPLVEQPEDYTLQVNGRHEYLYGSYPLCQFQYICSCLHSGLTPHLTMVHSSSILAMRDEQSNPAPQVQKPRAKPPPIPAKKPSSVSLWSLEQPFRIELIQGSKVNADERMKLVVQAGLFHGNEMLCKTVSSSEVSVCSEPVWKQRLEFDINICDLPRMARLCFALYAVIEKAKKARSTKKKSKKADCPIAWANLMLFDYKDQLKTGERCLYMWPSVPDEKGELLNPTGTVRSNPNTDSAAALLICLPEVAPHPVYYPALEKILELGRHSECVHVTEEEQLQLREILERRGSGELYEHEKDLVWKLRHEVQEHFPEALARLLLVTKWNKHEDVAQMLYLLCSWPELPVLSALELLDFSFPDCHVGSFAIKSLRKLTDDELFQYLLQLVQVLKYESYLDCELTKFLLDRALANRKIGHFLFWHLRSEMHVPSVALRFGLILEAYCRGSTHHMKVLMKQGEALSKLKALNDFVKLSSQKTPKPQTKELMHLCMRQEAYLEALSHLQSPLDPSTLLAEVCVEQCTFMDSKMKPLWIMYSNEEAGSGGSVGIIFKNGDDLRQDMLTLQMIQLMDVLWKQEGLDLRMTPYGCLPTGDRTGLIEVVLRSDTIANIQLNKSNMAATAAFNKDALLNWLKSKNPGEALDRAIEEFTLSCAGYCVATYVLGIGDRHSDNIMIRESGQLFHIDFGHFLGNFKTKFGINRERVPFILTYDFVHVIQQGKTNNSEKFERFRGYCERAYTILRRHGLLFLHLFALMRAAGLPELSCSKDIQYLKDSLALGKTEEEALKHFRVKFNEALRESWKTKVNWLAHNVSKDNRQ
Sequence of PI3K delta (P27986 whole entry partner): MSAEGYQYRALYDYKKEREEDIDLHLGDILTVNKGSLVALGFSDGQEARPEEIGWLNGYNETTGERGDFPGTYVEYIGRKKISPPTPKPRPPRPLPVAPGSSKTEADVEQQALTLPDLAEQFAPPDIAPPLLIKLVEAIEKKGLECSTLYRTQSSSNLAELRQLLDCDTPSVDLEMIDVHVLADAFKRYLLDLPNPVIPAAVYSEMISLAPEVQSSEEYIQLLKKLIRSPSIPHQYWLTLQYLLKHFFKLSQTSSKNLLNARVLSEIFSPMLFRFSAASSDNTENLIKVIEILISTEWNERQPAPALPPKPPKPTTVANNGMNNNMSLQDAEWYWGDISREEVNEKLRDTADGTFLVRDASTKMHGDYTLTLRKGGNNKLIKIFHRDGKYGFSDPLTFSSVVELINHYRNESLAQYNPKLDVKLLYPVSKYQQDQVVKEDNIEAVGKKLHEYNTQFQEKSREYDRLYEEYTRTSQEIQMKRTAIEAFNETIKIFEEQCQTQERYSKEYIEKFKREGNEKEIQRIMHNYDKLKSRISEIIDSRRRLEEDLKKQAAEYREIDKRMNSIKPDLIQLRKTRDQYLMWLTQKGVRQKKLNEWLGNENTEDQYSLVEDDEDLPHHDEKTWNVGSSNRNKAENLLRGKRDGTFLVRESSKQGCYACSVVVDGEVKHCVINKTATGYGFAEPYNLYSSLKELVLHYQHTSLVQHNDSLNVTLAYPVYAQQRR

Structure (SMILES)	IC50
CCn1c(C(=O)NCC2CC2)nc2c(N3CCC(n4c(=O)[nH]c5ccccc54)CC3)ncnc21 [Compound 97, N-(cyclopropylmethyl)-9-ethyl-6-[4-(2-oxo-2,3-dihydro-1H-benzimidazol-1-yl)piperidin-1-yl]-9H-purine-8-carboxamide]	< 50 nM
Cn1c(C(=O)NCC2CC2)nc2c(N3CCC4(C3)C(=O)Nc3ccccc34)ncnc21 (stereo not drawn) [Compound 98, N-(cyclopropylmethyl)-9-methyl-6-(2-oxo-1,2-dihydro-1′H-spiro[indole-3,3′-pyrrolidin]-1′-yl)-9H-purine-8-carboxamide]	500 to 1500 nM
Cn1c(C(=O)NCC2CC2)nc2c(N3CCC4(CC3)C(=O)NCC4c3ccccc3)ncnc21 (stereo not drawn) [Compound 99, N-(cyclopropylmethyl)-9-methyl-6-(1-oxo-4-phenyl-2,8-diazaspiro[4.5]dec-8-yl)-9H-purine-8-carboxamide]	500 to 1500 nM
Cn1c(C(=O)NCC2CC2)nc2c(N3CCC(c4c[nH]c5ccccc45)CC3)ncnc21 [Compound 100, N-(cyclopropylmethyl)-6-[4-(1H-indol-3-yl)piperidin-1-yl]-9-methyl-9H-purine-8-carboxamide]	500 to 1500 nM
Cn1c(C(=O)NCC2CC2)nc2c(N3CCC(n4c(C(F)(F)F)nc5ccccc54)CC3)ncnc21 [Compound 101, N-(cyclopropylmethyl)-9-methyl-6-{4-[2-(trifluoromethyl)-1H-benzimidazol-1-yl]piperidin-1-yl}-9H-purine-8-carboxamide]	250 to 500 nM
Cc1nnc(-c2nc3c(N4CCC(n5c(=O)[nH]c6ccccc65)CC4)ncnc3n2C)o1 [Compound 102, 1-{1-[9-methyl-8-(5-methyl-1,3,4-oxadiazol-2-yl)-9H-purin-6-yl]piperidin-4-yl}-1,3-dihydro-2H-benzimidazol-2-one]	50 to 250 nM
Cn1c(C(=O)N2CC(F)(F)C2)nc2c(N3CCC4(CC3)C(=O)Nc3ccccc34)ncnc21 [Compound 103, 1′-{8-[(3,3-difluoroazetidin-1-yl)carbonyl]-9-methyl-9H-purin-6-yl}spiro[indole-3,4′-piperidin]-2(1H)-one]	50 to 250 nM
Cn1c(C(=O)N2CC(F)(F)C2)nc2c(N3CCC(n4c(=O)[nH]c5ccccc54)CC3)ncnc21 [Compound 104, 1-(1-{8-[(3,3-difluoroazetidin-1-yl)carbonyl]-9-methyl-9H-purin-6-yl}piperidin-4-yl)-1,3-dihydro-2H-benzimidazol-2-one]	50 to 250 nM
Cn1c(C(=O)NC2CCC(F)(F)CC2)nc2c(N3CCC4(CC3)C(=O)Nc3ccccc34)ncnc21 [Compound 105, N-(4,4-difluorocyclohexyl)-9-methyl-6-(2-oxo-1,2-dihydro-1′H-spiro[indole-3,4′-piperidin]-1′-yl)-9H-purine-8-carboxamide]	50 to 250 nM
Cn1c(C(=O)N2CCC(F)(F)C2)nc2c(N3CCC4(CC3)C(=O)Nc3ccccc34)ncnc21 [Compound 106, 1′-{8-[(3,3-difluoropyrrolidin-1-yl)carbonyl]-9-methyl-9H-purin-6-yl}spiro[indole-3,4′-piperidin]-2(1H)-one]	50 to 250 nM
Cn1c(C(=O)NC2CCC(F)(F)CC2)nc2c(N3CCC(n4c(=O)[nH]c5ccccc54)CC3)ncnc21 [Compound 107, N-(4,4-difluorocyclohexyl)-9-methyl-6-[4-(2-oxo-2,3-dihydro-1H-benzimidazol-1-yl)piperidin-1-yl]-9H-purine-8-carboxamide]	50 to 250 nM
Cn1c(C(=O)N2CCC(F)(F)C2)nc2c(N3CCC(n4c(=O)[nH]c5ccccc54)CC3)ncnc21 [Compound 108, 1-(1-{8-[(3,3-difluoropyrrolidin-1-yl)carbonyl]-9-methyl-9H-purin-6-yl}piperidin-4-yl)-1,3-dihydro-2H-benzimidazol-2-one]	50 to 250 nM
Cn1c(C(=O)N2CC[C@H](F)C2)nc2c(N3CCC4(CC3)C(=O)Nc3ccccc34)ncnc21 [Compound 109, 1′-(8-{[(3S)-3-fluoropyrrolidin-1-yl]carbonyl}-9-methyl-9H-purin-6-yl)spiro[indole-3,4′-piperidin]-2(1H)-one]	50 to 250 nM
Cn1c(C(=O)N2CC[C@@H](F)C2)nc2c(N3CCC4(CC3)C(=O)Nc3ccccc34)ncnc21 [Compound 110, 1′-(8-{[(3R)-3-fluoropyrrolidin-1-yl]carbonyl}-9-methyl-9H-purin-6-yl)spiro[indole-3,4′-piperidin]-2(1H)-one]	50 to 250 nM
Cn1c(C(=O)N[C@H]2CC[C@H](O)CC2)nc2c(N3CCC(n4c(=O)[nH]c5ccccc54)CC3)ncnc21 [Compound 111, N-(trans-4-hydroxycyclohexyl)-9-methyl-6-[4-(2-oxo-2,3-dihydro-1H-benzimidazol-1-yl)piperidin-1-yl]-9H-purine-8-carboxamide]	< 50 nM
CCCC(=O)c1nc2c(N3CCC(n4c(=O)[nH]c5ccccc54)CC3)ncnc2n1C [Compound 113, 1-[1-(8-butanoyl-9-methyl-9H-purin-6-yl)piperidin-4-yl]-1,3-dihydro-2H-benzimidazol-2-one]	50 to 250 nM
CCc1nnc(-c2nc3c(N4CCC(n5c(=O)[nH]c6ccccc65)CC4)ncnc3n2C)o1 [Compound 114, 1-{1-[8-(5-ethyl-1,3,4-oxadiazol-2-yl)-9-methyl-9H-purin-6-yl]piperidin-4-yl}-1,3-dihydro-2H-benzimidazol-2-one]	< 50 nM

Structure (SMILES)	IC50
Cc1ccc(-c2nc3c(N4CCC(n5c(=O)[nH]c6ccccc65)CC4)ncnc3n2C)o1 [Compound 115, 1-{1-[9-methyl-8-(5-methylfuran-2-yl)-9H-purin-6-yl]piperidin-4-yl}-1,3-dihydro-2H-benzimidazol-2-one]	250 to 500 nM
Cn1c(-c2ccco2)nc2c(N3CCC(n4c(=O)[nH]c5ccccc54)CC3)ncnc21 [Compound 116, 1-[1-(8-furan-2-yl-9-methyl-9H-purin-6-yl)piperidin-4-yl]-1,3-dihydro-2H-benzimidazol-2-one]	250 to 500 nM
Cn1c(C(=O)NCC2CC2)nc2c(N3CCC(N4C(=O)Cc5ccccc54)CC3)ncnc21 [Compound 117, N-(cyclopropylmethyl)-9-methyl-6-[4-(2-oxo-2,3-dihydro-1H-indol-1-yl)piperidin-1-yl]-9H-purine-8-carboxamide]	50 to 250 nM
Cn1c(C(=O)NCC2CC2)nc2c(N3CCC(n4c(=O)oc5ccccc54)CC3)ncnc21 [Compound 118, N-(cyclopropylmethyl)-9-methyl-6-[4-(2-oxo-1,3-benzoxazol-3(2H)-yl)piperidin-1-yl]-9H-purine-8-carboxamide]	50 to 250 nM
Cn1c(C(=O)NCC2CC2)nc2c(N3CCC4(CC3)CC(=O)c3ccccc34)ncnc21 [Compound 119, N-(cyclopropylmethyl)-9-methyl-6-(3-oxo-2,3-dihydro-1′H-spiro[indene-1,4′-piperidin]-1′-yl)-9H-purine-8-carboxamide]	250 to 500 nM
Cn1c(C(=O)NCC2CC2)nc2c(N3CCC4(CC3)C(=O)Cc3ccccc34)ncnc21 [Compound 120, N-(cyclopropylmethyl)-9-methyl-6-(2-oxo-2,3-dihydro-1′H-spiro[indene-1,4′-piperidin]-1′-yl)-9H-purine-8-carboxamide]	50 to 250 nM
Cn1c(C(=O)NCC2CC2)nc2c(N3CCC(n4ccc5ccccc54)CC3)ncnc21 [Compound 121, N-(cyclopropylmethyl)-6-[4-(1H-indol-1-yl)piperidin-1-yl]-9-methyl-9H-purine-8-carboxamide]	500 to 1500 nM
CC(C)c1nnc(-c2nc3c(N4CCC(n5c(=O)[nH]c6ccccc65)CC4)ncnc3n2C)o1 [Compound 122, 1-(1-{9-methyl-8-[5-(1-methylethyl)-1,3,4-oxadiazol-2-yl]-9H-purin-6-yl}piperidin-4-yl)-1,3-dihydro-2H-benzimidazol-2-one]	< 50 nM
CCCc1nnc(-c2nc3c(N4CCC(n5c(=O)[nH]c6ccccc65)CC4)ncnc3n2C)o1 [Compound 123, 1-{1-[9-methyl-8-(5-propyl-1,3,4-oxadiazol-2-yl)-9H-purin-6-yl]piperidin-4-yl}-1,3-dihydro-2H-benzimidazol-2-one]	< 50 nM
Cn1c(-n2ccnc2)nc2c(N3CCC(n4c(=O)[nH]c5ccccc54)CC3)ncnc21 [Compound 124, 1-{1-[8-(1H-Imidazol-1-yl)-9-methyl-9H-purin-6-yl]piperidin-4-yl}-1,3-dihydro-2H-benzimidazol-2-one]	50 to 250 nM
Cn1c(-c2nnc(C3CC3)o2)nc2c(N3CCC(n4c(=O)[nH]c5ccccc54)CC3)ncnc21 [Compound 125, 1-{1-[8-(5-cyclopropyl-1,3,4-oxadiazol-2-yl)-9-methyl-9H-purin-6-yl]piperidin-4-yl}-1,3-dihydro-2H-benzimidazol-2-one]	< 50 nM
Cn1c(N2CCCC2)nc2c(N3CCC(n4c(=O)[nH]c5ccccc54)CC3)ncnc21 [Compound 126, 1-[1-(9-methyl-8-pyrrolidin-1-yl-9H-purin-6-yl)piperidin-4-yl]-1,3-dihydro-2H-benzimidazol-2-one]	500 to 1500 nM
Cn1c(-n2cccc2)nc2c(N3CCC(n4c(=O)[nH]c5ccccc54)CC3)ncnc21 [Compound 127, 1-{1-[9-methyl-8-(1H-pyrrol-1-yl)-9H-purin-6-yl]piperidin-4-yl}-1,3-dihydro-2H-benzimidazol-2-one]	500 to 1500 nM
Cc1ccoc1-c1nc2c(N3CCC(n4c(=O)[nH]c5ccccc54)CC3)ncnc2n1C [Compound 128, 1-{1-[9-methyl-8-(3-methylfuran-2-yl)-9H-purin-6-yl]piperidin-4-yl}-1,3-dihydro-2H-benzimidazol-2-one]	250 to 500 nM
Cn1c(C(=O)NCC2CC2)nc2c(N3CCC4(CC3)C(=O)Oc3ccccc34)ncnc21 [Compound 129, N-(cyclopropylmethyl)-9-methyl-6-(2-oxo-1′H-spiro[1-benzofuran-3,4′-piperidin]-1′-yl)-9H-purine-8-carboxamide]	250 to 500 nM
Cn1c(C(=O)NCC2CC2)nc2c(N3CCC4(CC3)c3ccccc3CC4O)ncnc21 (stereo not drawn) [Compound 130, N-(cyclopropylmethyl)-6-(2-hydroxy-2,3-dihydro-1′H-spiro[indene-1,4′-piperidin]-1′-yl)-9-methyl-9H-purine-8-carboxamide]	50 to 250 nM

Source: patent US20140058103A1, “Inhibitors of PI3K-Delta and Methods of Their Use and Manufacture” (Exelixis, Inc., priority 2010, published 2014)
